Assay results: patent US4258058A, “Phenoxyalkylcarboxylic acid compounds and thrombocyte-aggregation inhibition” (Boehringer Mannheim GmbH, priority 1978, dated 1981)

System: thrombocyte aggregation
Assay: Born test: inhibition of the second phase of adrenalin induced thrombocyte aggregation in platelet-rich plasma (PRP)
Assay type: cell-based, human
Conditions: for inhibition at 50 µM: Homo sapiens, at 5 × 10^-5 m, induced by 5×10^-6 m adrenalin, read-out: Percent Inhibition Of Thrombocyte Aggregation
Description: In a series of determinations utilizing the Born test, venous blood from metabolically healthy persons was mixed with sodium citrate in a ratio of 9:1 and the erythrocytes precipitated by centrifuging at 150 g. The filtrate is enriched in thrombocytes and this filtrate is designated as platelet-rich plasma (PRP). One aliquot of the PRP is placed in the cuvette of an aggregometer (Universal Aggregometer, manufactured by Braun Melsungen, West Germany) and stirred with a magnetic stirrer. The substance to be tested is added in the form of an aqueous solution at a pH of about 7. Changes in the light transmission of the suspension are continuously recorded. After spontaneous aggregation ceases, further aggregation is induced by the addition of 5×10^-6 m adrenalin, forming larger thrombocyte aggregates and increasing the light transmission through the suspension.
The adrenalin induced aggregation takes place in two phases, i.e., the light transmission initially increases, then stagnates temporarily, and then increases again. Only the second phase of the aggregation can be influenced by aggregation inhibitors. For an evaluation of the results there is first established, in a control experiment using no test compound, the angle of the second aggregation phase against the horizontal for adrenalin induced aggregation and this is designated as 0% inhibition. Utilizing the same PRP, the test compound is added and aggregation is induced with adrenalin, and the course of aggregation continuously recorded. The angle of the second aggregation phase against the horizontal is again determined and the relationship of this angle against the angle determined in the control experiment yields the percent inhibition of the second phase of the thrombocyte aggregation.
The standard material "Colfarit" (acetylsalicylic acid) yields 100% inhibition at a concentration of 10^-4 m and 0% inhibition at a concentration of 5×10^-5 m. At the latter concentration the inventive compounds yielded the following results: […]

## CC(C)(Oc1ccc(CCNS(=O)(=O)c2ccc(Cl)cc2)cc1)C(=O)O [2-{4-[2-(4-Chlorobenzenesulphonylamino)-ethyl]-phenoxy}-2-methylpropionic acid]
  inhibition at 50 µM: 100%

## CC(C)(Oc1ccc(CCNS(=O)(=O)c2ccccc2)cc1)C(=O)O [2-{4-[2-(Benzenesulphonylamino)-ethyl]-phenoxy}-2-methylpropionic acid]
  inhibition at 50 µM: 20%

## O=C(O)COc1ccc(CNS(=O)(=O)c2ccccc2)cc1 [4-(Benzenesulphonylaminomethyl)-phenoxyacetic acid]
  inhibition at 50 µM: 20%

## O=C(O)COc1ccc(CCNS(=O)(=O)c2cccc3ccccc23)cc1 [4-[2-(1-naphthalenesulphonylamino)-ethyl]-phenoxyacetic acid]
  inhibition at 50 µM: 100%

## O=C(O)COc1ccc(CCNS(=O)(=O)c2ccc(F)cc2)cc1 [4-[2-(4-Fluorobenzenesulphonylamino)-ethyl]-phenoxyacetic acid]
  inhibition at 50 µM: 100%

## CC(=O)c1ccc(S(=O)(=O)NCCc2ccc(OCC(=O)O)cc2)cc1 [4-[2-(4-acetylbenzenesulphonylamino)-ethyl]-phenoxyacetic acid]
  inhibition at 50 µM: 100%

## O=C(O)COc1ccc(CCNS(=O)(=O)c2ccc(Cl)cc2)cc1 [4-[2-(4-chlorobenzenesulphonylamino)-ethyl]-phenoxyacetic acid]
  inhibition at 50 µM: 100%

## CC(CO)NC(=O)COc1ccc(CCNS(=O)(=O)c2ccccc2)cc1 (stereo not drawn) [4-[2-(Benzenesulphonylamino)-ethyl]-phenoxyacetic acid 1-hydroxy-2-propylamide]
  inhibition at 50 µM: 10%

## CCOC(=O)CCNC(=O)COc1ccc(CCNS(=O)(=O)c2ccccc2)cc1 [4-[2-(Benzenesulphonylamino)-ethyl]-phenoxyacetic acid 2-ethoxycarbonylethylamide]
  inhibition at 50 µM: 100%

## O=C(O)COc1ccc(CCNS(=O)(=O)c2ccccc2)cc1 [4-[2-(Benzenesulphonylamino)-ethyl]-phenoxyacetic acid]
  inhibition at 50 µM: 100%

## Cc1ccc(S(=O)(=O)NCCc2ccc(OCC(=O)O)cc2)cc1 [4-[2-(p-toluenesulphonylamino)-ethyl]-phenoxyacetic acid]
  inhibition at 50 µM: 100%

## O=C(O)COc1ccc(CCCNS(=O)(=O)c2ccccc2)cc1 [4-[3-(Benzenesulphonylamino)-propyl]-phenoxyacetic acid]
  inhibition at 50 µM: 100%

## CC(=O)Oc1ccccc1C(=O)O [Colfarit, acetylsalicylic acid, reference compound]
  inhibition at 50 µM: 0%
At 10^-4 m, induced by adrenalin
  inhibition of thrombocyte aggregation: 100%

## CC(C)OC(=O)COc1ccc(CCNS(=O)(=O)c2ccccc2)cc1 [Isopropyl 4-[2-(benzenesulphonylamino)-ethyl]-phenoxyacetate]
  inhibition at 50 µM: 100%
